Among the data in ChEMBL document CHEMBL1150196, “Isolation and structure of cytostatic steroidal saponins from the African medicinal plant Balanites aegyptica” (1991) are EC50 values, retold here.

Molecules are shown by their SMILES. ≈ marks a conversion by molar mass, not a printed value.

This experiment concerns P388. Kind of experiment: Cytotoxicity against mouse P388 cells. In kind it is functional. The settings on record: read-out: ED50 (the source's name).
Regarding `C[C@H]1CC[C@@]2(OC1)O[C@H]1C[C@H]3[C@@H]4CC=C5C[C@@H](O[C@@H]6O[C@H](CO)[C@@H](O[C@@H]7O[C@H](CO)[C@@H](O)[C@H](O[C@@H]8O[C@H](CO)[C@@H](O)[C@H](O)[C@H]8O)[C@H]7O)[C@H](O)[C@H]6O[C@@H]6O[C@@H](C)[C@H](O)[C@@H](O)[C@H]6O)CC[C@]5(C)[C@H]4CC[C@]3(C)[C@H]1[C@@H]2C` [BALANITIN 4], the EC50 was found to be 0.41 µg/mL (≈ 0.392 µM).

Regarding `C[C@H]1CC[C@@]2(OC1)O[C@H]1C[C@H]3[C@@H]4CC=C5C[C@@H](O[C@@H]6O[C@H](CO)[C@@H](O[C@@H]7O[C@H](CO)[C@@H](O)[C@H](O[C@@H]8O[C@@H](C)[C@H](O)[C@@H](O)[C@H]8O)[C@H]7O)[C@H](O)[C@H]6O[C@@H]6O[C@@H](C)[C@H](O)[C@@H](O)[C@H]6O)CC[C@]5(C)[C@H]4CC[C@]3(C)[C@H]1[C@@H]2C` [BALANITIN 5], the EC50 turned out to be 2.4 µg/mL (≈ 2.33 µM).

Take `C[C@H]1CC[C@@]2(OC1)O[C@H]1C[C@H]3[C@@H]4CC=C5C[C@@H](O[C@@H]6O[C@H](CO)[C@@H](O[C@@H]7O[C@H](CO)[C@@H](O)[C@H](O)[C@H]7O)[C@H](O)[C@H]6O[C@@H]6O[C@@H](C)[C@H](O)[C@@H](O)[C@H]6O)CC[C@]5(C)[C@H]4CC[C@]3(C)[C@H]1[C@@H]2C` [BALANITIN 6]: the EC50 is 0.21 µg/mL (≈ 0.237 µM).

On to `C[C@H]1CC[C@@]2(OC1)O[C@H]1C[C@H]3[C@@H]4CC=C5C[C@@H](O[C@@H]6O[C@H](CO)[C@@H](O[C@@H]7O[C@H](CO)[C@@H](O)[C@H](O[C@@H]8OC[C@@H](O)[C@H](O)[C@H]8O)[C@H]7O)[C@H](O)[C@H]6O[C@@H]6O[C@@H](C)[C@H](O)[C@@H](O)[C@H]6O)CC[C@]5(C)[C@H]4CC[C@]3(C)[C@H]1[C@@H]2C` [BALANITIN 7], for which the EC50 stood at 0.22 µg/mL (≈ 0.216 µM).

As to `O=c1[nH]cc(F)c(=O)[nH]1` [FLUOROURACIL], the EC50 was found to be 0.08 µg/mL (≈ 0.615 µM).
